# Measurements reported in patent US5776734A, “DNA encoding the β subunit of a mammalian maxi-K potassium channel” (Merck & Co., Inc., priority 1996, dated 1998).
# Tests used:
# [1] = biological target: T1, purified maxi-K channel from bovine tracheal smooth muscle (Bos taurus, UniProt Q28067+Q28204); test: [125I]ChTX binding to purified maxi-K channel (ChTX receptor); conditions: for inhibition of 125I-ChTX binding to the purified maxi-K channel: in a manner similar to native tissue channels
# T1 construct: Purified sarcolemmal membrane vesicles derived from bovine tracheal smooth muscle; from tissue; host or cells: bovine tracheal smooth muscle sarcolemmal membranes
# T1 sequence (Q28204 whole entry): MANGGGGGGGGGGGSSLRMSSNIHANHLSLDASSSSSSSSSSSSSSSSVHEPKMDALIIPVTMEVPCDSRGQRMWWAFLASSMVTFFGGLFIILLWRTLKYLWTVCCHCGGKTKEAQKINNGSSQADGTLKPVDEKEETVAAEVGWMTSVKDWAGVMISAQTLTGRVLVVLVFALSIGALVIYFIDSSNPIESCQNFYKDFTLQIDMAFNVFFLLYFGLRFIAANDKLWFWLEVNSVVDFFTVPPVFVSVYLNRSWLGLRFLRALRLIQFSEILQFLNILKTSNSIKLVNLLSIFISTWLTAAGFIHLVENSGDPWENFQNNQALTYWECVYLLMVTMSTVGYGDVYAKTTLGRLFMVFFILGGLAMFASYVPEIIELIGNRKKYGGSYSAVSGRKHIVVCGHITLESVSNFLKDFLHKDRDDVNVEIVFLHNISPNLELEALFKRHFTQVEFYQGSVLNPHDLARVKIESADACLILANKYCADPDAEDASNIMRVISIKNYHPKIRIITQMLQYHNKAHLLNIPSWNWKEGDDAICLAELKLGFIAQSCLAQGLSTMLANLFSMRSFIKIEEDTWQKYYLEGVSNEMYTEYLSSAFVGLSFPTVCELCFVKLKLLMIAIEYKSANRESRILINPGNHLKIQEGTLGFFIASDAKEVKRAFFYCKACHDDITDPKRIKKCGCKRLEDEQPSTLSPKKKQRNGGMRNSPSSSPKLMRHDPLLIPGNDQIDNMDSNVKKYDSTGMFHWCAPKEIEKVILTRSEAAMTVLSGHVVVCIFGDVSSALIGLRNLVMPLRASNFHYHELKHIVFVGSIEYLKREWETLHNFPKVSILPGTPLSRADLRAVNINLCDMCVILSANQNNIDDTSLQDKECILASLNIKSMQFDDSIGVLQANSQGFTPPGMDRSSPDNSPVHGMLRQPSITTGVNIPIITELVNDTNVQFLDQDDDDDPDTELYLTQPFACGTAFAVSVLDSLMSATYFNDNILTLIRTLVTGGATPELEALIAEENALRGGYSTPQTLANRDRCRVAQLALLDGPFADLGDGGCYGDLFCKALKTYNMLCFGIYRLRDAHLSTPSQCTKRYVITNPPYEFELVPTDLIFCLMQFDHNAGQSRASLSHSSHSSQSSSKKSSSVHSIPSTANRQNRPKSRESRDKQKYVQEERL
# T1 sequence (Q28067 2-191): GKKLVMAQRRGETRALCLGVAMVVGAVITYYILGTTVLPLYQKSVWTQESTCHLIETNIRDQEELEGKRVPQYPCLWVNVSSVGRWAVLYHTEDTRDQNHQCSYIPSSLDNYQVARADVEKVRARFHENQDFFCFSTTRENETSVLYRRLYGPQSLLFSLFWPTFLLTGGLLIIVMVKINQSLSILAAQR
# Experimental: Purified sarcolemmal membrane vesicles derived from bovine tracheal smooth muscle were prepared as previously described (Slaughter, R. S., Shevell, J. L., Felix, J. P., Garcia, M. L., and Kaczorowski, G. J., Biochemistry 28, 3995-4002 (1989)). The interaction of [^125 I]ChTX (New England Nuclear Corporation) with maxi-K channels in bovine tracheal sarcolemmal membrane vesicles was monitored as outlined previously (Vazquez, J., Feigenbaum, P., Katz, G., King, V. F., Reuben, J. P., Roy-Contancin, L., Slaughter, R. S., Kaczorowski, G. J., and Garcia, M. L., J. Biol. Chem. 264, 20902-20909 (1989)). Binding of radiolabeled toxin to solubilized channels was measured by incubating aliquots of solubilized material in 0.05% digitonin with [^125 I]ChTX as described (Garcia-Calvo, M., Vazquez, J., Smith, M., Kaczorowski, G. J., and Garcia, M. L. Biochemistry 30, 11157-11164 (1991)). At the end of the incubation period, protein was precipitated by addition of 10% (w/v) PEG (Mw~8000) in the presence of […] and the precipitate was immediately collected onto GF/C glass fiber filters (Whatman) that had been presoaked in 0.5% polyethylenimine. Nonspecific binding was determined in the presence of 10 nM ChTX (Peninsula Laboratories). For each experiment, triplicate assays were routinely performed, and the data were averaged. The standard error of the mean of these replicates was typically less than 3%.
# [2] = biological target: T2, 31,000 component (β subunit) of purified ChTX receptor (Bos taurus, UniProt Q28067+Q28204); test: Covalent crosslinking of [125I]ChTX to purified receptor with disuccinimidyl suberate, SDS-PAGE; format: binding, bovine; conditions: in the presence of disuccinimidyl suberate
# T2 construct: Purified sarcolemmal membrane vesicles derived from bovine tracheal smooth muscle; from tissue; host or cells: bovine tracheal smooth muscle sarcolemmal membranes
# T2 sequence (Q28204 whole entry): as the sequence (Q28204 whole entry) above
# T2 sequence (Q28067 2-191): as the sequence (Q28067 2-191) above
# Experimental: Fractions from the last sucrose density gradient centrifugation containing 31-158 ng of protein were dialyzed against 10 mM Na-borate, pH 9.0, 0.05% Triton X-100 and then reacted with 3.5 mCi of [^125 I]Bolton-Hunter reagent (2200 Ci/mmol; New England Nuclear Corporation) for 15 min on ice. The reaction was quenched by addition of Tris-HCl, pH 7.4 to a final concentration of 100 mM. Covalent incorporation of [^125 I]ChTX into the purified receptor was accomplished with the bifunctional reagent, disuccinimidyl suberate as previously described for crosslinking ChTX to its receptor in membranes (Garcia-Calvo, M., Vazquez, J., Smith, M., Kaczorowski, G. J., and Garcia, M. L. (1991) Biochemistry 30, 11157-11164). Briefly, the purified receptor preparation was incubated with 130 pM [^125 I]ChTX in 10 mM NaCl, 10 mM Taps-NaOH, pH 9.0, 0.1% digitonin, in the absence or presence of unlabeled ChTX, for two hours at room temperature. The solution was then adjusted to 0.2M NaCl and disuccinimidyl suberate was added to a final concentration of 0.18 mM. After incubation at room temperature for 1 min, the reaction was stopped by addition of Tris-HCl, pH 7.4 to a final concentration of 200 mM. Samples were dialyzed against 10 mM Tris-HCl, pH 7.4, 0.05% digitonin, concentrated 10 fold, and subjected to SDS-PAGE. […]
# [3] = test system: maxi-K channel α and β subunits coexpressed in Xenopus oocytes; test: Two-electrode voltage clamp of Xenopus oocytes injected with α and β subunit cRNAs; format: cell-based, mouse α subunit, bovine β subunit; conditions: oocytes injected with both α and β subunit cRNAs
# Chain of maxi-K channel α and β subunits coexpressed in Xenopus oocytes (Q08460 66-642 limits assumed): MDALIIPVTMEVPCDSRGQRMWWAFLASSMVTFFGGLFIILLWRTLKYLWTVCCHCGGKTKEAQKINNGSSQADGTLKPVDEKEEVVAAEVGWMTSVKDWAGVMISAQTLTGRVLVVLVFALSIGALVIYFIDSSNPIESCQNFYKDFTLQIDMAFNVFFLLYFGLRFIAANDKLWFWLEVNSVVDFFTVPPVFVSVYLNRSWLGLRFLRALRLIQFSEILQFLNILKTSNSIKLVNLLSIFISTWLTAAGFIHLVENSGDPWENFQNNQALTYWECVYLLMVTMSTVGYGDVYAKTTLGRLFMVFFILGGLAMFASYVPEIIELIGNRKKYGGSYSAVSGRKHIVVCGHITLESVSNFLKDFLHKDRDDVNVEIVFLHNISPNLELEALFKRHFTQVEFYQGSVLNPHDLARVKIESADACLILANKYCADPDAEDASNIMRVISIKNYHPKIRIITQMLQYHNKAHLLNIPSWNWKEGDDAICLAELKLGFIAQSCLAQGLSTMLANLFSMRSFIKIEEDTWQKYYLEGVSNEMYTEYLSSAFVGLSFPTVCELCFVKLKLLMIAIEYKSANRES
# Chain of maxi-K channel α and β subunits coexpressed in Xenopus oocytes (as listed by the source): as the sequence (Q28067 2-191) above
# Description: (§1) cDNAs encoding both the α and β subunits were used as templates for the production of cRNA. The α subunit cDNA was obtained from Leo Pallanck (Univ. of Wisconsin) and consisted of a full-length mouse brain cDNA (mslo19; GenBank Accession #U09383) in an RNA transcription vector, pGH. […] We therefore used standard techniques to modify the mslo19 cDNA, specifically by deleting the 5' non-coding sequence (bases 1 to 940), and replacing that sequence with a consensus eukaryotic translation initiation sequence: 5'-GCCGCCACC-3'. […] A fragment of the β subunit cDNA, including the entire open reading frame, was subcloned into a pGEM (Promega, inc.) vector for cRNA transcription. The cRNAs encoding both the α and β subunits were transcribed using the appropriate RNA polymerase as determined by the transcription vector (T7 for α, and SP6 for β) and capped in vitro using a kit (mCAP; Stratagene, inc), purified by size-exclusion chromatography using sepahadex G-50 spin columns (Bio-Rad, inc.), and analyzed for purity and length by agarose/formaldehyde gel electrophoresis according to established procedures. […]
# (§2) Currents were recorded from Xenopus oocytes using two-electrode voltage-clamp methods to record currents from the entire oocyte and patch-clamp methods to record current from small patches of membrane excised from the oocytes. […]
# [4] = test system: maxi-K channel α subunit (mslo19) expressed in Xenopus oocytes; test: Two-electrode voltage clamp of Xenopus oocytes injected with α subunit cRNA alone; format: cell-based, mouse; conditions: for block of outward potassium currents: no concentration given; for block of outward currents in whole-oocyte voltage clamp: toxin at 10 to 30 nM
# Chain of maxi-K channel α subunit (mslo19) expressed in Xenopus oocytes (Q08460 66-642 limits assumed): as the sequence (Q08460 66-642 limits assumed) above
# Description: cDNAs encoding both the α and β subunits were used as templates for the production of cRNA. The α subunit cDNA was obtained from Leo Pallanck (Univ. of Wisconsin) and consisted of a full-length mouse brain cDNA (mslo19; GenBank Accession #U09383) in an RNA transcription vector, pGH. […] We therefore used standard techniques to modify the mslo19 cDNA, specifically by deleting the 5' non-coding sequence (bases 1 to 940), and replacing that sequence with a consensus eukaryotic translation initiation sequence: 5'-GCCGCCACC-3'. […] A fragment of the β subunit cDNA, including the entire open reading frame, was subcloned into a pGEM (Promega, inc.) vector for cRNA transcription. The cRNAs encoding both the α and β subunits were transcribed using the appropriate RNA polymerase as determined by the transcription vector (T7 for α, and SP6 for β) and capped in vitro using a kit (mCAP; Stratagene, inc), purified by size-exclusion chromatography using sepahadex G-50 spin columns (Bio-Rad, inc.), and analyzed for purity and length by agarose/formaldehyde gel electrophoresis according to established procedures. Following ethanol precipitation, cRNAs were resuspended in sterile, DEPC-treated water at a concentration of 0.1 to 1 μg/μl, and stored in 2 μl aliquots at […].
# Injection of mRNA or cRNA into Xenopus oocytes was done by a modification of established protocols (A. Coleman, Transcription and Translation: A Practical Approach. B. D. Hanes, S. J. Higgins, Eds., 1984); Y. Masu, et al., Nature 329, 836-838 (1987)). Oocytes were surgically removed from 0.17% tricaine anesthetized Xenopus laevis (Xenopus One). The excised ovarian lobes were teased apart with jeweler's forceps and then placed into OR-2 (82.5 mM NaCl, 2 mM KCl, 1 mM MgCl2, 5 mM HEPES, pH 7.4) containing 2 mg/ml collagenase β (Boehringer Mannhiem) for 2 hours at room temperature with a change of the buffer at 1 hour. Isolated oocytes were repeatedly washed in OR-2 until the supernatant remained clear. Stage 5 and 6 oocytes were selected and cultured overnight in supplemented OR-2 (OR-2 containing 1.8 mM CaCl2 and 0.5 mg/ml gentamycin. Oocytes were injected with 46 nl of RNA at a concentration of 0.1 to 1.0 mg/ml in H2 O. RNA was injected using a Nanoject automatic oocyte injector (Drummond Scientific) and injection needles were pulled from 3.5" Drummond capillaries using a Micropipette puller (Kopf Instruments).
# as §2, with “oocytes. Recordings were done at room temperature and were performed 1 to 30 days after injection.” for “oocytes.”
# [5] = biological target: maxi-K channel α subunit (mslo19) expressed in Xenopus oocytes (Mus musculus, UniProt Q08460); test: Patch clamp of excised inside-out patches from oocytes injected with α subunit cRNA alone; format: cell-based; conditions: 100-500 nM
# Chain of maxi-K channel α subunit (mslo19) expressed in Xenopus oocytes (Mus musculus, UniProt Q08460) (Q08460 whole entry): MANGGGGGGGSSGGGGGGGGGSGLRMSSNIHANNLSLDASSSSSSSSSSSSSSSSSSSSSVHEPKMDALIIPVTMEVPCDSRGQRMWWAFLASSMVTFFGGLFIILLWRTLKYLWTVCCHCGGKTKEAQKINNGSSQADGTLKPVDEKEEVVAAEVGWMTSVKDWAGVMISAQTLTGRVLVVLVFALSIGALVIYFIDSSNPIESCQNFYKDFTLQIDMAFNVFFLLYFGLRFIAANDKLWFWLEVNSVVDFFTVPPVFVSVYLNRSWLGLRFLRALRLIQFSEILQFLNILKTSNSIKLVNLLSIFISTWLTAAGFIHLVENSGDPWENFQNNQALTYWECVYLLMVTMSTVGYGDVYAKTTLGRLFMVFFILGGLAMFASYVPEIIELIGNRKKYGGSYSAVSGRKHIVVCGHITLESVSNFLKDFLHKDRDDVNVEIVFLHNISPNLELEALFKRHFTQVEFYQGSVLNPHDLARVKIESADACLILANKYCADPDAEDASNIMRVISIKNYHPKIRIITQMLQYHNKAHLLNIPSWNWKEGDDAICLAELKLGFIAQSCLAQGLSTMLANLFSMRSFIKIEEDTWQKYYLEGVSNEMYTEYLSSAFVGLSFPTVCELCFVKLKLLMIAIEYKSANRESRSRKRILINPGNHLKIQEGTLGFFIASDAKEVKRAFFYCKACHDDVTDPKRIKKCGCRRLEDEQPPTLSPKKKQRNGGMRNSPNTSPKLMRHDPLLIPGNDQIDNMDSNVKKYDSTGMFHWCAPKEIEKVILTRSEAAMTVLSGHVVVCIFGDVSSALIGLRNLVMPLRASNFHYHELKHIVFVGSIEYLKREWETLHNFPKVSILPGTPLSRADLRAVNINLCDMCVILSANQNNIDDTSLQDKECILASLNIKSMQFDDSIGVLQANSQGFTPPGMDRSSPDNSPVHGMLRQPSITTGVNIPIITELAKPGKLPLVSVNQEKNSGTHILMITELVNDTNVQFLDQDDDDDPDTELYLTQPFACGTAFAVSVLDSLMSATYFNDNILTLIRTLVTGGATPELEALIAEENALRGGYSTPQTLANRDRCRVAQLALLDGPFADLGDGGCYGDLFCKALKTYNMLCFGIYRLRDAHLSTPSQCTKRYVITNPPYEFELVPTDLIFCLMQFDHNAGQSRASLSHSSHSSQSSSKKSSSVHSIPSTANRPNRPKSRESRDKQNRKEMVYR
# Description: as §1, §2
# [6] = biological target: maxi-K channel α and β subunits coexpressed in Xenopus oocytes (UniProt Q08460+Q28067); test: Patch clamp of excised inside-out patches from oocytes injected with α and β subunit cRNAs; format: cell-based, mouse α subunit, bovine β subunit; conditions: both subunits; 100-300 nM applied to the intracellular face of the channel
# Chain of maxi-K channel α and β subunits coexpressed in Xenopus oocytes (UniProt Q08460+Q28067) (Q08460 whole entry): as above
# Chain of maxi-K channel α and β subunits coexpressed in Xenopus oocytes (UniProt Q08460+Q28067) (Q28067 whole entry): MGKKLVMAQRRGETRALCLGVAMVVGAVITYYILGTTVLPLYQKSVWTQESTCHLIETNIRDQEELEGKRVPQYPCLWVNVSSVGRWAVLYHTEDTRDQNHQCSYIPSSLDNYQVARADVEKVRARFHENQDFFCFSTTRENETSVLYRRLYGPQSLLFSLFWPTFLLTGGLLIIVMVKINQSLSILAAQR
# Description: as §1, §2
compound,measurement,setting,value
[Ba] [barium],inhibition of 125I-ChTX binding to the purified maxi-K channel,[1],inhibited
[Cs] [cesium],inhibition of 125I-ChTX binding to the purified maxi-K channel,[1],inhibited
[K+] [potassium],"effect on [125I]ChTX labeling of the 31,000 component",[2],abolished
same,inhibition of 125I-ChTX binding to the purified maxi-K channel,[1],inhibited
^125 I-ChTX: radiolabeled toxin (New England Nuclear Corporation),binding affinity for the purified channel compared with the native maxi-K channel,[1]; purified channel from bovine tracheal smooth muscle,similar
charybdotoxin [ChTX],block of outward potassium currents,[3],blocked
same,block of outward potassium currents,[4],blocked
same,block of outward currents in whole-oocyte voltage clamp,[4],blocked
same,inhibition of 125I-ChTX binding to the purified maxi-K channel,[1],inhibited
dehydrosoyasaponin I [DHS-I],effect on channel open probability / patch currents,[5],not increased
same,channel activation,[6],fully activated
iberiotoxin (QFTDVDCSVSKECWSVCKDLFGVDRGKCMGKKCRCYQ) [IbTX],"effect on [125I]ChTX labeling of the 31,000 component",[2],abolished
same,block of outward potassium currents,[3],blocked
same,block of outward potassium currents,[4],blocked
same,block of outward currents in whole-oocyte voltage clamp,[4],blocked
same,inhibition of 125I-ChTX binding to the purified maxi-K channel,[1],inhibited
limbatustoxin [LbTX],inhibition of 125I-ChTX binding to the purified maxi-K channel,[1],inhibited
